Results reported in patent US20080214533A1, “Cyclic Iminocarbamates And Their Use” (BAYER HEALTHCARE AG, priority 2004, published 2008).

Each compound was assayed against human factor Xa (FXa) (Homo sapiens, UniProt P00742) (assay: Determination of the factor Xa inhibition (chromogenic substrate)). Conditions: chromogenic substrate Pefachrome FXa, 25° C., extinction at 405 nm.
Chain of human factor Xa (FXa) (P00742 235-488 limits assumed): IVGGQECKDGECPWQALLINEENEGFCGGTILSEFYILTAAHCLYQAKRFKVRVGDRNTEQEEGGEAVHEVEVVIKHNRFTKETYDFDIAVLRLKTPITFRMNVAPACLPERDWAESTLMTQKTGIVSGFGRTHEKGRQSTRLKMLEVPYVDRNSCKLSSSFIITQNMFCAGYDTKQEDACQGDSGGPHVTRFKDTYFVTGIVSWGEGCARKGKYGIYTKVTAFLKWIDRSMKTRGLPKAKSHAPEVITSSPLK
Chain of human factor Xa (FXa) (P00742 41-179 partner limits assumed): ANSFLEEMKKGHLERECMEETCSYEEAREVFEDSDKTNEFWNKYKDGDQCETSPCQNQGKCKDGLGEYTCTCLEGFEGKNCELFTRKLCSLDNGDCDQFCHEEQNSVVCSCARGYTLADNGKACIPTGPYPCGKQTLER
Assay type: biochemical
Method: The enzymatic activity of human factor Xa (FXa) is measured using the conversion of a chromogenic substrate specific for FXa. Factor Xa cleaves p-nitroaniline from the chromogenic substrate. The determinations are carried out in microtitre plates as follows:
The test substances, in various concentrations, are dissolved in DMSO and incubated for 10 minutes at 25° C. with human FXa ([…] dissolved in 50 mmol/l of Tris buffer [C,C,C-tris(hydroxymethyl)aminomethane], 150 mmol/l of NaCl, 0.1% BSA [bovine serum albumin], pH=8.3). Pure DMSO is used as control. The chromogenic substrate (150 μmol/l Pefachrome® FXa from Pentapharm) is then added. After an incubation time of 20 minutes at 25° C., the extinction at 405 nm is determined.
`N=C1OCCN1c1ccc(NC(=O)c2nccnc2C(=O)Nc2ccc(Cl)cn2)cc1` [Example 1, N-(5-Chloropyridin-2-yl)-N′-[4-(2-imino-1,3-oxazolidin-3-yl)phenyl]pyrazine-2,3-dicarboxamide methanesulphonate] gave an IC50 of 0.64 nM.
Compound `N=C1OCCCN1c1ccc(NC(=O)c2nccnc2C(=O)Nc2ccc(Cl)cn2)cc1` [Example 5, N-(5-Chloropyridin-2-yl)-N′-[4-(2-imino-1,3-oxazinan-3-yl)phenyl]pyrazine-2,3-dicarboxamide methanesulphonate] has an IC50 of 2.6 nM.
`Cc1nc(C(=O)Nc2ccc(Cl)cn2)c(C(=O)Nc2ccc(N3CCOC3=N)cc2)s1` [Example 12, N^4-(5-Chloropyridin-2-yl)-N^5-[4-(2-imino-1,3-oxazolidin-3-yl)phenyl]-2-methyl-1,3-thiazole-4,5-dicarboxamide methanesulphonate] was tested, and the IC50 was 0.3 nM.
In the case of `Cc1nc(C(=O)Nc2ccc(N3CCOC3=N)cc2)c(C(=O)Nc2ccc(Cl)cn2)s1` [Example 13, N^5-(5-Chloropyridin-2-yl)-N^4-[4-(2-imino-1,3-oxazolidin-3-yl)phenyl]-2-methyl-1,3-thiazole-4,5-dicarboxamide methanesulphonate], the IC50 is reported as 4.4 nM.
